Reference: PMC10673058, “In Silico and In Vitro Search for Dual Inhibitors of the Trypanosoma brucei and Leishmania major Pteridine Reductase 1 and Dihydrofolate Reductase” (Molecules, 2023)
Read-outs that look alike come from different tables or passages of the source.

Experiments:
[1] = target: T1, LmDHFR (Leishmania major, UniProt P07382); assay: Spectrophotometric enzyme inhibition assay, recombinant LmDHFR; type: biochemical
T1 construct: The DNA fragment encoding LmDHFR was amplified by Phusion DNA polymerase; His6 (N); made in house; host or cells: E. coli BL21(DE3), vector pET 11D::LmDHFRHis
T1 sequence (P07382 26-229 limits assumed): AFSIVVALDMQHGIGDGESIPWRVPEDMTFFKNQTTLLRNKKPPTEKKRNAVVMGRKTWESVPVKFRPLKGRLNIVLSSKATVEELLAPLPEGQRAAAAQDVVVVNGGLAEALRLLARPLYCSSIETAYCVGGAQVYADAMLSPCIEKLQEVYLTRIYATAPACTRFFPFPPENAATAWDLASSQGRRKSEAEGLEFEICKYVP
Experimental: (§1) Based on the in vitro assays against TbPTR1 and LmPTR1 performed in the previous works of our group, as well as the in silico results obtained from the current study, a total of 47 natural products were tested against the target enzymes. […] The concentration-effect curves for the IC50 and EC50 values that were obtained in the present study are depicted in Supplementary Materials Figures S21–S42.
The TbDHFR concentration was measured to be 0.04 mg/mL and a specific activity of 38.1 U/mg was calculated. The concentration of LmDHFR was 0.05 mg/mL with a specific activity of 56.2 U/mg. All measurements were carried out using the saturating concentrations for dihydrofolate (50 μM) and NADPH (150 μM) in Buffer C (50 mM Tris/HCl (pH 7.6), 250 mM NaCl, 10 mM BME). The saturating conditions for TbDHFR and LmDHFR were determined using the diagrams depicted in Figures S17 and S19 in the Supplementary Materials.
(§2) The inhibitory effect of the selected natural products was investigated by testing the DMSO solution of each compound at a constant concentration of 100 μM for TbPTR1 and 50 μM for LmPTR1, TbDHFR, and LmDHFR, as well as hDHFR. The concentrations of the cofactor and substrates were set at the previously determined saturating conditions (Section 4.2.5). Each test compound was incubated for 20 min with the respective enzyme and NADPH to ensure a sufficient interaction time before the reaction was induced by the addition of the substrate. The enzymatic activity was determined in duplicates and correlated with a reference that contained just DMSO, instead of an inhibitor. The enzymatic activity of the reference was normalized to 100%.
(§3) The half-maximal inhibitory concentration (IC50) of the natural products was determined in triplicate, using at least five different inhibitor concentrations against a reference containing no inhibitor. The enzymatic activity was documented and analyzed and the IC50 value was determined by nonlinear regression using GraphPad Prism 9 (GraphPad Software Inc., La Jolla, CA, USA).

[2] = target: T2, hDHFR (Homo sapiens, UniProt P00374); assay: Spectrophotometric enzyme inhibition assay, recombinant hDHFR (selectivity); type: biochemical; details: for inhibition at 50 µM: set compound concentration of 50 μM, read-out: relative inhibition of hDHFR; for EC50: read-out: EC50 hDHFR (footnote a)
T2 construct: His; host or cells: E. coli BL21 (DE3), vector pET 15b::hDHFRHis
T2 sequence (P00374 1-187): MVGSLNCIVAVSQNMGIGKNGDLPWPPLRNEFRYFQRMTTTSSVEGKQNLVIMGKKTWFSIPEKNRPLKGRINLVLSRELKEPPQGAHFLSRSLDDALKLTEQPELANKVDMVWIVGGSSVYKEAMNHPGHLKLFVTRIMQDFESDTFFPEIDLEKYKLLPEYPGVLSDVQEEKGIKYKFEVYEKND
Experimental: For 15 compounds, there was enough substance available to be tested in selectivity studies against hDHFR.
The used hDHFR concentration was 0.64 mg/mL, with a specific activity of 0.62 U/mg. All measurements were carried out using the saturating concentrations for dihydrofolate (100 μM) and NADPH (50 μM) in Buffer C (50 mM Tris/HCl (pH 7.6), 250 mM NaCl, 10 mM BME). The saturating conditions for hDHFR were determined using the diagrams depicted in Figure S20 in the Supplementary Materials.
as §2, §3

[3] = target: T3, TbPTR1 (Trypanosoma brucei brucei, UniProt O76290)
T3 construct: His6 (N); made in house; host or cells: E. coli BL21 (DE3), vector pET 15b::TbPTR1His (strain from the group of M. Paola Costi, Modena)
T3 sequence (O76290 1-268): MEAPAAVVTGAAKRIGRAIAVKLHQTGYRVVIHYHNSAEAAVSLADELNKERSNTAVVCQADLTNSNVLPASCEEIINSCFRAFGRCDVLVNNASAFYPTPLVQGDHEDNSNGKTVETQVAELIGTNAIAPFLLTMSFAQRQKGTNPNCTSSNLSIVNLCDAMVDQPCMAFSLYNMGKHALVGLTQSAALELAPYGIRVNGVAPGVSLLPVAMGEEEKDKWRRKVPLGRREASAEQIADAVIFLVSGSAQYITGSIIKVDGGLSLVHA

[4] = target: T4, LmPTR1 (Leishmania major, UniProt Q01782); set-up: method as in PMID 29211037; details: read-out: IC50 LmPTR1; from previous study; cited from earlier work
T4 construct: His6 (N); made in house; host or cells: E. coli BL21 (DE3), vector pET 15b::LmPTR1His (strain from the group of M. Paola Costi, Modena)
T4 sequence (Q01782 1-288): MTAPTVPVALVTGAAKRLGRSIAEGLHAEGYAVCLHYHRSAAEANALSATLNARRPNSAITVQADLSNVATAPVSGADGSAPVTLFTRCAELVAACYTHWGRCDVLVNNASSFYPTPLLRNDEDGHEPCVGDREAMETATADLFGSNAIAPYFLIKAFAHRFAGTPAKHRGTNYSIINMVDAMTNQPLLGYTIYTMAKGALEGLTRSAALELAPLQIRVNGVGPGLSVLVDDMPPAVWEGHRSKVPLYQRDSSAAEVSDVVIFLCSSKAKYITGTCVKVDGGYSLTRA

[5] = target: T3, TbPTR1; assay: Spectrophotometric enzyme inhibition assay, recombinant TbPTR1; type: biochemical
Experimental: as §1
(§4) The used TbPTR1 concentration was 3.23 mg/mL, with a specific activity of 0.03 U/mg. The measurements were carried out using the enzyme’s individual saturating concentrations for folic acid (8 μM) and NADPH (150 μM) in Buffer A (50 mM Tris/HCl (pH 7.6), 250 mM NaCl). For LmPTR1, the protein concentration was 5.02 mg/mL and the specific activity was calculated to be 0.29 U/mg. Buffer B (50 mM NaH2PO4 (pH 6.0), 100 mM NaCl) was used for all LmPTR1 measurements and the saturating concentrations amounted to 50 μM of folic acid and 200 μM of NADPH. The saturating conditions of the PTR1 enzymes were determined using the diagrams depicted in Figures S16 and S18 in the Supplementary Materials.
as §2, §3

[6] = target: T5, TbDHFR (Trypanosoma brucei brucei, UniProt Q27783); assay: Spectrophotometric enzyme inhibition assay, recombinant TbDHFR; type: biochemical
T5 construct: pET 11D::TbDHFRHis vector design for the recombinant overexpression of TbDHFR in E. coli; His; made in house; host or cells: E. coli BL21(DE3), vector pET 11D::TbDHFRHis
Experimental: Based on the in vitro assays against TbPTR1 and LmPTR1 performed in the previous works of our group, as well as the in silico results obtained from the current study, a total of 47 natural products were tested against the target enzymes.
The saturating conditions for TbDHFR and LmDHFR were determined using the diagrams depicted in Figures S17 and S19 in the Supplementary Materials.
as §2, §3

[7] = test system: T. brucei; set-up: method as in PMID 27077842; details: read-out: IC50 antitrypanosomal activity in T. brucei cell assays; cited from earlier work
[8] = target: T4, LmPTR1; assay: Spectrophotometric enzyme inhibition assay, recombinant LmPTR1; type: biochemical; details: for IC50: read-out: IC50 LmPTR1
Experimental: as §1, §4, §2, §3

[9] = target: T3, TbPTR1; assay: Dilution assay for reversible/irreversible inhibition of TbPTR1; type: biochemical; details: inhibitor concentration near IC50
Source text: The catalytic center of TbPTR1 contains a cysteine residue (TbCys168) in close proximity to the substrate/inhibitor binding site. In our previous publication, we mentioned the possibility that Sesquiterpene Lactones 1 and 2 might interact as Michael acceptors with TbCys168 by covalent bond formation with its thiol group. Therefore, we have now subjected a selection of natural product inhibitors containing Michael acceptors (1, 2, 5, 17) to initial testing for irreversible inhibition, according to the dilution method described by Bisswanger (see Section 4.2.9).
In this method, the enzyme activity of the respective enzyme-inhibitor mixture is measured before and after a defined dilution (in this study, 1:2). In the absence of an inhibitor, dilution decreases the enzyme activity proportionally to the dilution factor. […] A reversible inhibitor, on the other hand, will dissociate upon dilution, resulting in a weaker decrease in activity than what corresponds to the dilution effect. In the presence of Inhibitors 1 and 2, the decrease in TbPTR1 activity upon the 1:2 dilution was almost proportional to the dilution factor, i.e., only 9.5% and 6.8% activity, respectively, were recovered compared to the reference. This would indeed support an irreversible mechanism of inhibition. […] However, further investigations on these compounds’ mechanisms of inhibition are under way.
To assign an either reversible or irreversible inhibition mechanism to selected compounds, the enzymatic activity of an enzyme-inhibitor mixture was determined before and after a defined dilution, using the reaction conditions described in Section 4.2.5 [16].
Two equivalent solutions with the respective enzyme and inhibitor combination were prepared, one of them being diluted with buffer in a 1:2 ratio shortly before the reaction was started by adding the substrate. The respective inhibitor concentration was set near the IC50 value. The substrate and cofactor concentrations were kept constant in both reaction mixtures. All measurements were carried out in duplicates against a reference containing DMSO instead of the inhibitor. […] If a reversible inhibitor was present, a higher degree of activity recovery (>>10%) could be observed than what corresponds to the dilution factor due to the partial dissociation of the inhibitor from the enzyme upon dilution. The percentual changes in the enzymatic activity of the undiluted and diluted test solution were compared and evaluated to decide the mechanism of inhibition.

[10] = test system: T. brucei; details: read-out: EC50 in vitro against T. brucei; cited from earlier work
[11] = test system: L. major; details: read-out: EC50 against L. major; cited from earlier work

T5 sequence (Q27783 28-238 limits assumed): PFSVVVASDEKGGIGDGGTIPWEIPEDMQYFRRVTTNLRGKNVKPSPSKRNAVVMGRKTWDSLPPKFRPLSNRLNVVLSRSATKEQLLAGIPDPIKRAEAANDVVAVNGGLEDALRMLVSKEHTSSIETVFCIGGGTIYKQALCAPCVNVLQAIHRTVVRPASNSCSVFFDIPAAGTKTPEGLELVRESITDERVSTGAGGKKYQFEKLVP

SMILES	IC50 [2]	inhibition at 50 µM [2]	IC50 ([5]; read-out: IC50 TbPTR1)	IC50 ([6]; read-out: IC50 TbDHFR)	EC50 [2]	IC50 [8]	TbPTR1 activity recovered upon 1:2 dilution compared to the reference [9]	further results
O=C(OC1Cc2c(O)cc(O)cc2OC1c1ccc(O)c(O)c1)c1cc(O)c(O)c(O)c1 (single isomer, unassigned; (-)) [Compound 3, (−)-catchin-3-gallate]	4.2 µM	> 50%						IC50 [1]: 0.6 µM; IC50 ([3]; read-out: IC50 TbPTR1; from previous study; cited from earlier work): > 100 µM; IC50 [4]: 75.3 µM
O=C(/C=C/c1ccc(O)c(O)c1/C=C/c1ccc(O)c(O)c1)O[C@H](Cc1ccc(O)c(O)c1)C(=O)O [Compound 8, salvianolic acid A]	> 50 µM		85.1 µM					IC50 [6]: 2.5 µM; EC50 [1]: 18.7 µM; IC50 [7]: 3.1 µM
C=C(C)[C@H](CC=C(C)C)Cc1c(O)cc(O)c2c1O[C@H](c1ccc(O)cc1O)CC2=O [Compound 9, sophoraflavanone G]		> 50%	31.8 µM	9.4 µM	31.6 µM			IC50 ([1]; read-out: IC50 LmDHFR): 14 µM; IC50 [7]: 1.4 µM
O=C(/C=C/CCc1ccc(O)c(O)c1)CCc1ccc(O)c(O)c1 [Compound 17, dehydrohirsutanone]	40.7 µM	> 50%	8.3 µM	17.7 µM		> 50 µM	12.8%	EC50 [10]: 2.5 µM; EC50 [11]: > 100 µM
CC(C)=CCc1c(O)cc2oc3cc(O)c(O)c(CCC(C)(C)O)c3c(=O)c2c1O [Compound 6, garcinone c]	1.7 µM	> 50%			1.7 µM			IC50 ([1]; read-out: IC50 LmDHFR): 3 µM; IC50 ([3]; from previous study; read-out: IC50 TbPTR1; cited from earlier work): > 100 µM
COc1cc(/C=C/C(=O)CC(=O)/C=C/c2ccc(O)c(OC)c2)ccc1O [Compound 5, curcumin]	33.9 µM	> 50%	18.5 µM			> 50 µM	16.6%	EC50 [10]: 2.5 µM; EC50 [11]: 33 µM
C=C1C(=O)O[C@@H]2/C=C(\CO)CC/C=C(\C)C[C@H](OC(=O)C(=C)[C@H](O)CO)[C@@H]12 [Compound 1, cnicin]	> 50 µM			> 50 µM		> 50 µM	9.5%	inhibitory effect against LmPTR1 [8]: No relevant inhibitory effect; inhibition of hDHFR [2]: no relevant inhibition; EC50 ([3]; EC50 value; from previous study; read-out: EC50 TbPTR1 (footnote a); cited from earlier work): 12.2 µM
COc1cc([C@@H]2Oc3cc(-c4oc5cc(O)cc(O)c5c(=O)c4O)ccc3O[C@H]2CO)ccc1O [Compound 4, 2,3-dehydrosilybin B]		> 50%			3.8 µM			IC50 [5]: > 100 µM; IC50 [1]: 2.6 µM; IC50 [4]: 42.9 µM
